Laboratory results taken from US20090253794A1, “Fibroblast Activator, Collagen Production Promoter, Collagen Contraction Promoter, Hyaluronic Acid Production Promoter, ATP Production Promoter, Melanin Formation Inhibitor, and Agent for External Application to the Skin” (priority 2005, published 2009).

Experiments:
Type in all cases: cell-based
[1] = test system: normal human skin fibroblasts; assay: collagen gel contraction promoting effect; conditions: one week, negative control = 1
Experimental: A collagen solution (collagen was used trade name I-AC manufactured by KOUKEN Co., Ltd.) dissolved in normal human skin fibroblasts (manufactured by KURABO INDUSTRIES LTD., 1×10^5 cells/ml) was prepared on ice according to the explanation insert attached to the product, and the collagen was gelled in 6 wells at 37° C. Thereafter, 0.25% FBS/DMEM medium containing a sample ([…]) was added. The gel was detached from the dish wall, and the level of contraction of the gelled collagen was examined. As a positive control, DMEM medium containing 10% FBS instead of 0.25% FBS was used. The medium was changed every 2 days and, one week later, the medium was removed by suction. The diameter of the collagen gel was measured, the area was calculated, and the area ratio was compared to that of the negative control as 1.

[2] = test system: human normal melanocytes; assay: melanin formation suppression test in human melanocytes (L-DOPA, absorbance 495 nm); conditions: 5 days, relative value, without addition of sample = 100
Experimental: A melanin formation suppression test was performed using human melanocytes (manufactured by KURABO INDUSTRIES LTD.). That is, human normal melanocytes amplified in Medium 254 medium (human melanocyte medium added with HMGS, manufactured by KURABO INDUSTRIES LTD.) was added to a 96 well plate at 10^4 cells per well, and cultured in a carbon dioxide incubator adjusted to 5% (v/v) carbon dioxide gas at 37° C. for about 24 hr. Then, pure water or a sample (conagenin) dissolved in pure water was added thereto to a final concentration of 0.1 mM, 1.0 mM or 10 mM. As a positive control, kojic acid (manufactured by Sigma Ltd.) was added to the same concentration. The cells were cultured for 5 more days under the same conditions. To the recovered cells was added 50 μl of cell suspension (PBS buffer containing Triton X-100 at 0.1% (v/v)). After thorough suspending, the suspension was stood at 4° C. for 1 hr. Thereto was added 50 μl of 10 mM L-DOPA (manufactured by Nacalai Tesque), and the mixture was incubated at 37° C. for 1 hr. Thereafter, the absorbance at 495 nm was measured by a plate reader (multiscanplus MKII, manufactured by Japan Flow Laboratory), and the melanin formation amount was measured (shown in a relative value to the value without addition of sample as 100).

[3] = test system: normal human skin fibroblasts; assay: type I collagen production promoting effect (PIP in culture supernatant) and cell count; conditions: for produced amount of collagen: 24 hr, relative value, negative control = 100, n=3 average; for number of cells: cells per well, counted visually after trypsin, negative control 4.9 × 10^5
Experimental: Normal human skin fibroblasts (manufactured by KURABO INDUSTRIES LTD.) were added to a 24 well plate at 5×10^4 cells per well. Using Medium 106S medium (manufactured by KURABO INDUSTRIES LTD.) containing 2% FBS, the cells were cultured under an atmosphere of 95% (V/V) air-5% (V/V) carbon dioxide gas at 37° C. for 24 hr. The medium was changed to Medium 106S medium (free of FBS) containing each sample, and the cells were cultured under the same conditions for 24 hr. After the completion of culture, the culture supernatant was taken to evaluate the type I collagen biosynthesizability and, to count the cells, the cells were harvested by a trypsin treatment. The samples used were two kinds of conagenin contents of 0.1 μM, 1 μm, 10 μM, 100 μM, 1 mM (final concentration), and magnesium L-ascorbyl phosphate (manufactured by Wako Pure Chemical Industries, Ltd., final concentration 100 μM) as a positive control (one added with PBS instead of the sample was used as a negative control).

[4] = test system: normal skin fibroblasts derived from human; assay: fibroblast activating action evaluation test by the MTT reduction method; conditions: 48 hr culture, control = 100
Experimental: The present inventors performed a fibroblast activating action evaluation test by the MTT reduction method and using normal skin fibroblasts derived from human (see TIM Mosmann; Journal of Immunological Methods p 55-63, 1983).
Using DMEM (Gibco) containing 5% FBS (fetal bovine serum; purchased from NICHIREI CORPORATION), normal skin fibroblasts derived from human (manufactured by KURABO INDUSTRIES LTD.) were plated on a 96 well plate at a density of 2×10^4 cells/well, and cultured at 37° C., 5% CO2 for 24 hr. After removing the medium, the cells were washed with PBS(−) (NISSUI PHARMACEUTICAL CO., LTD.), the medium was changed to DMEM containing 1% FBS supplemented with each concentration of conagenin, and the cells were cultured at 37° C., 5% CO2. The blank was […] containing 1% FBS, which was free of test specimen. After culture for 48 hr, the absorbance at 550 nm was measured by MTT reduction method, based on which the MTT reduction amount was determined. The cell activation rate was shown in a percentage relative to the absorbance of additive-free cultured cell (control) as 100.

**Q.** For `C[C@@H]([C@@H](C)O)[C@@H](O)C(=O)N[C@@](C)(CO)C(=O)O` [conagenin, (2S)—N-[(2R,3S,4R)2,4-dihydroxy-3-methyl-pentanoyl]-2-methylserine], which “collagen gel area ratio” value ([1]; 1 μM in 0.25% FBS/DMEM) is on record?
**A.** Its value is 0.47.

**Q.** What about the “collagen gel area ratio” value ([1]; 100 μM in 0.25% FBS/DMEM) of the same molecule?
**A.** The value was 0.44.

**Q.** And the “collagen gel area ratio” value ([1]; 5 mM in 0.25% FBS/DMEM)?
**A.** The value was 0.42.

**Q.** What about the melanin formation amount ([2]; 100 μM) of the same molecule?
**A.** The melanin formation amount was 92.

**Q.** And the melanin formation amount ([2]; 1 mM)?
**A.** The melanin formation amount was 66.

**Q.** And the melanin formation amount ([2]; 10 mM)?
**A.** The melanin formation amount was 17.

**Q.** What about the “produced amount of collagen” value ([3]; 0.1 μM) of the same molecule?
**A.** The value was 196.

**Q.** What about the number of cells ([3]; 0.1 μM) of the same molecule?
**A.** The number of cells was 5.1 × 10^5.

**Q.** And the “produced amount of collagen” value ([3]; 1 μM)?
**A.** Its value is 197.

**Q.** And the number of cells ([3]; 1 μM)?
**A.** Its number of cells is 5.1 × 10^5.

**Q.** And the “produced amount of collagen” value ([3]; 10 μM)?
**A.** Its value is 204.

**Q.** What about the number of cells ([3]; 10 μM) of the same molecule?
**A.** The number of cells was 5.2 × 10^5.

**Q.** And the “produced amount of collagen” value ([3]; 100 μM)?
**A.** The value was 208.

**Q.** What about the number of cells ([3]; 100 μM) of the same molecule?
**A.** Its number of cells is 4.8 × 10^5.

**Q.** And the “produced amount of collagen” value ([3]; 1 mM)?
**A.** Its value is 202.

**Q.** What about the number of cells ([3]; 1 mM) of the same molecule?
**A.** Its number of cells is 4.7 × 10^5.

**Q.** What about the cell activation rate ([4]; 0.01 μM) of the same molecule?
**A.** The cell activation rate was 105%.

**Q.** What about the cell activation rate ([4]; 0.05 μM) of the same molecule?
**A.** The cell activation rate was 120%.

**Q.** What about the cell activation rate ([4]; 0.1 μM) of the same molecule?
**A.** The cell activation rate was 125%.

**Q.** And the cell activation rate ([4]; 1 μM)?
**A.** Its cell activation rate is 111%.

**Q.** And the cell activation rate ([4]; 10 μM)?
**A.** Its cell activation rate is 113%.

**Q.** And the cell activation rate ([4]; 40 μM)?
**A.** The cell activation rate was 124%.

**Q.** And the cell activation rate ([4]; 80 μM)?
**A.** Its cell activation rate is 113%.

**Q.** And the cell activation rate ([4]; 160 μM)?
**A.** Its cell activation rate is 113%.

**Q.** And the cell activation rate ([4]; 310 μM)?
**A.** Its cell activation rate is 113%.
